Earlier results on one molecule are cited in patent publication US20030114534A1, “Pharmaceutical preparation for apthous ulcers” (priority 2001, published 2003).

The series has as its system apthous lesions. As to conditions: applied locally, 250 mg. in 10 ml. of water, three times a day.

For the molecule `CN(C)[C@@H]1C(O)=C(C(N)=O)C(=O)[C@@]2(O)C(O)=C3C(=O)c4c(O)ccc(Cl)c4[C@@](C)(O)[C@H]3C[C@@H]12` [Aureomycin], the analgesic effect lasting entry is on record as “one-half to two”.
